Each structure is given as a SMILES string. Counter-ions that a name gives are not always drawn. A value given as a limit tells only on which side of the number the result lay.

As usually defined, the melting point is the temperature of the solid-liquid transition. On to `Cc1cc(-c2ccc3c(c2)-n2nc(-c4ccccc4)cc2C(=O)N(C)C32CC2)cc(C)n1` (as salt: hydrochloride) [Example 121, 9-(2,6-Dimethyl-pyridin-4-yl)-5-methyl-2-phenyl-spiro[benzo[f]pyrazolo[1,5-a][1,4]diazepine-6,1′-cyclopropan]-4(5H)-one], for which the melting point is more than 250 °C.

Regarding `Cc1ncccc1-c1ccc2c(c1)-n1cc(N(C)C)cc1C(=O)N(C)C21CC1` (as salt: hydrochloride) [Example 154], the melting point is 120 to 134 °C.

`CN1C(=O)c2cc(-c3ccccc3)cn2-c2cc(-c3ccccn3)ccc2C12CC2` (as salt: hydrochloride) [Example 111, 5-Methyl-2-phenyl-9-(pyridin-2-yl)-spiro[benzo[f]pyrrolo[1,2-a][1,4]diazepine-6,1′-cyclopropan]-4(5H)-one] yielded a melting point of 185 to 198 °C.

In the case of `COCc1cc2n(c1)-c1cc(-c3ccc(C)nc3)ccc1C1(CC1)N(C)C2=O` (as salt: hydrochloride) [Example 205], the melting point lay in the range of 113 to 123 °C.

Consider `Cc1cncc(-c2ccc3c(c2)-n2cc(-c4ccccc4)cc2C(=O)N(C)C32CC2)c1` (as salt: hydrochloride) [Example 98, 5-Methyl-2-phenyl-9-(5-methyl-pyridin-3-yl)-spiro[benzo[f]pyrrolo[1,2-a][1,4]diazepine-6,1′-cyclopropan]-4(5H)-one], for which the melting point is 212 to 220 °C.

`CNc1ccc(-c2ccc3c(c2)-n2cc(-c4ccccc4)cc2C(=O)N(C)C32CC2)cn1` (as salt: hydrochloride) [Example 118, 5-Methyl-2-phenyl-9-(6-methylamino-pyridin-3-yl)-spiro[benzo[f]pyrrolo[1,2-a][1,4]diazepine-6,1′-cyclopropan]-4(5H)-one] yielded a melting point of more than 250 °C.

Take `Cc1cnccc1-c1ccc2c(c1)-n1cccc1C(=O)N(C)C21CC1` (as salt: hydrochloride) [Example 38, 5-Methyl-9-(3-methylpyridin-4-yl)-spiro[benzo[f]pyrrolo[1,2-a][1,4]diazepine-6,1′-cyclopropan]-4(5H)-one]: the melting point was more than 250 °C.

`Cc1ncccc1-c1ccc2c(c1)-n1cc(-c3cccnc3)cc1C(=O)N(C)C21CC1` (as salt: hydrochloride) [Example 143] had a melting point of more than 250 °C.

`Cc1ncccc1-c1ccc2c(c1)-n1nccc1C(=O)N(C)C2` (as salt: hydrochloride) [Example 217, 5-Methyl-9-(2-methylpyridin-3-yl)-5,6-dihydro-4H-benzo[f]pyrazolo[1,5-a][1,4]diazepin-4-one] came in with a melting point of 120 to 140 °C.

In the case of `CN1C(=O)c2cccn2-c2cc(-c3ccc4nccn4c3)ccc2C12CC2` (as salt: hydrochloride) [Example 41, 5-Methyl-9-(imidazo[1,2-a]pyridin-6-yl)-spiro[benzo[f]pyrrolo[1,2-a][1,4]diazepine-6,1′-cyclopropan]-4(5H)-one], the melting point was more than 250 °C.

For `CN1C(=O)c2cccn2-c2cc(-c3cnc(N)c(C(F)(F)F)c3)ccc2C12CC2` (as salt: hydrochloride) [Example 40, 5-Methyl-9-(6-amino-5-trifluoromethyl-pyridin-3-yl)-spiro[benzo[f]pyrrolo[1,2-a][1,4]diazepine-6,1′-cyclopropan]-4(5H)-one], the melting point is more than 250 °C.

Compound `CCc1ncccc1-c1ccc2c(c1)-n1cc(-c3ccnn3C)cc1C(=O)N(C)C21CC1` (as salt: hydrochloride) [Example 163] had a melting point of 187 to 192 °C.

`CN(C)c1ccc2c(c1)-n1cc(-c3ccccc3)cc1C(=O)N(C)C21CC1` (as salt: hydrochloride) [Example 115, 9-Dimethylamino-5-methyl-2-phenyl-spiro[benzo[f]pyrrolo[1,2-a][1,4]diazepine-6,1′-cyclopropan]-4(5H)-one] gave a melting point of 160 to 170 °C.
